The term IC50 denotes the concentration that inhibits the measured activity by half.

The text below walks through data of patent US20090118220A1, “SUBSTITUTED ADENINES AND THE USES THEREOF” (AstraZeneca AB, priority 2006, published 2009).

SMILES strings stand for the structures. Converted amounts (≈) assume the structure as drawn.

The subject of one assay is DNA ligase. Put plainly: DNA ligase FRET inhibition assay, isozyme not specified. In kind it is biochemical. As for the experimental part:
(§1) Compounds were tested for inhibition of DNA ligase using a Fluorescence Resonance Energy Transfer (FRET) detection assay as previously described (Chen et al. 2002. Analytical Biochemistry 309: 232-240; Benson et al. 2004. Analytical Biochemistry 324:298-300). Assays were performed in 384-well polystyrene flat-bottom black plates in 30 μl reactions containing 3 μl compound dissolved in dimethylsulfoxide, 20 μl 1.5× Enzyme Working Solution (25% glycerol, 45 mM potassium chloride, 45 mM ammonium sulfate, 15 mM dithiothreitol, 1.5 mM ethylenediaminetetraacetic acid (EDTA), 0.003% Brij 35, 75 mM MOPS pH 7.5, 150 nM bovine serum albumin, 1.5 μM NAD^+, 60 nM DNA substrate, 0.375 nM enzyme in water) and 7 μl 70 mM magnesium chlorine solution (96 mM magnesium chloride, 20% glycerol in water) to initiate the reaction. […] Plates were read in a Tecan Ultra plate reader at two separate wavelengths—Read 1: excitation 485, emission 535, Read 2: excitation 485, emission 595. […] Compound potency was based on IC50 measurements determined from reactions performed in the presence of ten different compound concentrations.
Solubility is determined under assay conditions using a nephelometer to detect a change in turbidity as the concentration of compound increases. The limit of solubility is defined as the maximum concentration before a detectable increase in turbidity is measured.

For another assay, the target named is S. pneumoniae LigA (Streptococcus pneumoniae serotype 4, UniProt Q97QT2). Nature of the assay: DNA ligase FRET inhibition assay. It is filed as biochemical. To be noted: FRET detection, ten compound concentrations; read-out: IC50 (μM) against S. pneumoniae LigA. How it is done: as §1, with “reaction. The DNA substrate is similar to that described in Benson et al. (2004. Analytical Biochemistry 324:298-300).” for “reaction.”
S. pneumoniae LigA, sequence (Q97QT2 whole entry): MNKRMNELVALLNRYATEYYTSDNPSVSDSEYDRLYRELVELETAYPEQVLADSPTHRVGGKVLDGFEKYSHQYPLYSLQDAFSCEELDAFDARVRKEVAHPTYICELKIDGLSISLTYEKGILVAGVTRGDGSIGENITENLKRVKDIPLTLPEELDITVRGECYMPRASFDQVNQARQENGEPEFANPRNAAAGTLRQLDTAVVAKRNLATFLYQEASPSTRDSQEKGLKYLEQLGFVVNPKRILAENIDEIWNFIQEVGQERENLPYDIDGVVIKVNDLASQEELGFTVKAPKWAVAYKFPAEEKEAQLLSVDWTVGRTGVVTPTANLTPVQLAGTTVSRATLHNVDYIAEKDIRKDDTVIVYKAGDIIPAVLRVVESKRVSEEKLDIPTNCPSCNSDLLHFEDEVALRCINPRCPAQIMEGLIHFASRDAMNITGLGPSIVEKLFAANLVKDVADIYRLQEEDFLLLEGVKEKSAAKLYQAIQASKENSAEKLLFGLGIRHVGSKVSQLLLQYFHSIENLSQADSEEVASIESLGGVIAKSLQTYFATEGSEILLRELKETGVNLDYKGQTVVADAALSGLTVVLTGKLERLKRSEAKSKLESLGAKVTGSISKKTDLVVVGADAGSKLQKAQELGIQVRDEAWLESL

The test system of a further assay is S. pneumoniae. Nature of the assay: Bacterial susceptibility testing, microbroth dilution (NCCLS), MIC. It is filed as cell-based. Conditions: Streptococcus pneumoniae; lowest concentration able to reduce growth by 80% or more; read-out: MIC (μg/ml) against S. pneumoniae. As for the experimental part:
Compounds were tested for antimicrobial activity by susceptibility testing using microbroth dilution methods recommended by NCCLS. Compounds were dissolved in dimethylsulfoxide and tested in 10 doubling dilutions in the susceptibility assays such that the final dimethylsulfoxide concentration in the assay was 2% (v/v). The organisms used in the assay were grown overnight on appropriate agar media and then suspended in the NCCLS-recommended liquid susceptibility-testing media. The turbidity of each suspension was adjusted to be equal to a 0.5 McFarland standard, a further 1-in-10 dilution was made into the same liquid medium to prepare the final organism suspension, and 100 μL of this suspension was added to each well of a microtiter plate containing compound dissolved in 2 μL of dimethylsulfoxide. Plates were incubated under appropriate conditions of atmosphere and temperature and for times according to NCCLS standard methods prior to being read. The Minimum Inhibitory Concentration (MIC) was determined as the lowest drug concentration able to reduce growth by 80% or more.
On the technique in general: Broth dilution looks for growth in wells or tubes with falling amounts of substance.

For the compound `C=C[C@]1(O)[C@H](O)[C@@H](C)O[C@H]1n1cnc2c(N)nc(OC3CCCC3)nc21` [(2R,3S,4R,5R)-2-(6-amino-2-(cyclopentyloxy)-9H-purin-9-yl)-5-methyl-3-vinyltetrahydrofuran-3,4-diol], in the assay on DNA ligase, the “inhibition of the ligation reaction at the limit of solubility in the assay medium” value is “approximately 17%”.

Turning to `Nc1nc(OC2CCCC2)nc2c1ncn2[C@@H]1OC(CF)(CF)[C@@H](O)[C@H]1O` [Example 13, (3S,4R,5R)-5-[6-amino-2-(cyclopentyloxy)-9H-purin-9-yl]-2,2-bis(fluoromethyl)tetrahydrofuran-3,4-diol], at S. pneumoniae LigA, the IC50 stood at 1 µM.

As to `Nc1nc(OC2CCCC2)nc2c1ncn2[C@@H]1OC(CO)(CO)[C@@H](O)[C@H]1O` [Example 12, (3S,4R,5R)-5-[6-amino-2-(cyclopentyloxy)-9H-purin-9-yl]-2,2-bis(hydroxymethyl)tetrahydrofuran-3,4-diol], in the assay on S. pneumoniae, the MIC came to 16 µg/mL (≈ 42 µM).

For the compound `Nc1nc(OC2CCCC2)nc2c1ncn2C1OCCC1(Cl)Cl` (centres unmarked) [2-(cyclopentyloxy)-9-(3,3-dichlorotetrahydrofuran-2-yl)-9H-purin-6-amine], the “inhibition of the ligation reaction at the limit of solubility in the assay medium” value in the assay with DNA ligase was “approximately 12%”.

`C[C@H]1O[C@@H](n2c(NCc3ccccc3)nc3c(N)nc(OC4CCCC4)nc32)[C@H](O)[C@@H]1O` [Example 2]: at S. pneumoniae LigA, the IC50 was determined as 10 µM.
